Data published in patent publication US20070066590A1, “Phenyl-and pyridylpiperidine-derivatives as modulators of glucose metabolism” (priority 2003, published 2007).
pIC50: −log10 of the molar value.

Experiments:
RUP3 = target: T1, RUP3 (Homo sapiens, UniProt Q8TDV5); test: 96-Well Cyclic AMP Membrane Assay for RUP3 (Membrane Cyclase Assay); assay type: biochemical; conditions: RUP3 membranes, cAMP Flashplate
T1 construct: expressed in transfected cells
T1 sequence (Q8TDV5 with tags, fused parts or gaps): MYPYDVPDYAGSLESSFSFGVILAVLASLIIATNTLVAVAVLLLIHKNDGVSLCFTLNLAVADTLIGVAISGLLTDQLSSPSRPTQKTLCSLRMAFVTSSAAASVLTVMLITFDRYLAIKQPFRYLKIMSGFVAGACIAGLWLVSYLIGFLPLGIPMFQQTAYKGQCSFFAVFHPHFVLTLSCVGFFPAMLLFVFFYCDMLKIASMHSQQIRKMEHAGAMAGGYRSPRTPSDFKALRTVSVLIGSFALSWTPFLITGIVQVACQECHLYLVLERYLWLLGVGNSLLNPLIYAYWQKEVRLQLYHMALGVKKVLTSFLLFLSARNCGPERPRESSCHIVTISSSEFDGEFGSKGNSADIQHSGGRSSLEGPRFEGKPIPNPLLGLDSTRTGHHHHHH
Method: 96-Well Cyclic AMP Membrane Assay for RUP3
• 1) Adenlyl cyclase Activation Flashplate Assay kit from Perkin Elmer—96 wells (SMP004B) and ^125I tracer (NEX130) which comes with the kit. […] All buffers and membranes should be kept cold (in ice bucket) while performing assay. 20 mM Hepes, pH7.4 1 mM MgCl2 100 mM NaCl 2× Regeneration Buffer (make in binding buffer): 20 mM Phosphocreatine (1.02 gm/200 ml binding buffer) 20 units Creatine phosphokinase (4 mg/200 ml) 20 uM GTP (make up 10.46 mg/ml in binding buffer and add 200 ul/200 ml) 0.2 mM ATP (22.04 mg/200 ml) […] (44.4 mg IBMX dissolved in 1 ml 100% DMSO first and then add the entire amount to 200 ml of buffer). Regeneration buffer can be aliquotted into 40-45 ml portions (in 50 ml sterile tubes) and kept frozen for up to 2 months. Simply put the tube in a beaker with room temperature water to thaw out the regeneration buffer on the day of the assay. […] (Prior to the start of the assay, the frozen membrane pellets for both RUP3 and CMV (cells transfected with an expression plasmid containing no RUP3 sequences), are suspended in binding buffer, usually 1 ml binding buffer for 1 plate of membranes. The membranes are kept in ice all the time, and a polytron (Brinkmann polytron, model # PT-3100) is used (setting 6-7, for 15-20 seconds) to obtain a homogeneous membrane suspension.) Protein concentration is determined by Bradford protein assay kit using instructions given in the kit, using the standard supplied with the kit as a reference. […]

isolated rat islets = test: Stimulation of insulin secretion in isolated rat islets; assay type: cell-based; conditions: 10 μM compound; increased glucose (e.g. 300 mg/dl)
Method: E. Stimulation of Insulin Secretion in Isolated Rat Islets
As with HIT-T15 cells, it is known that stimulation of cAMP in isolated rat islets causes an increase in insulin secretion when the glucose concentration in the culture media is changed from 60 mg/dl to 300 mg/dl. RUP3 is an endogenously expressed GPCR in the insulin-producing cells of rat islets. Thus, RUP3 ligands can also be tested for their ability to stimulate GSIS in rat islet cultures. This assay is performed as follows: • A. Select 75-150 islet equivalents (IEQ) for each assay condition using a dissecting microscope. Incubate overnight in low-glucose culture medium (Optional.) • B. Divide the islets evenly into triplicate samples of 25-40 islet equivalents per sample. Transfer to 40 μm mesh sterile cell strainers in wells of a 6-well plate with 5 ml of low (60 mg/dl) glucose Krebs-Ringers Buffer (KRB) assay medium. • C. Incubate 30 minutes (1 hour if overnight step skipped) at 37° C. and 5% CO2. Save the supernatants if a positive control for the RIA is desired. • D. Move strainers with islets to new wells with 5 ml/well low glucose KRB. […] Freeze and store at <−20° C. until insulin concentrations can be determined. • I. Insulin determinations are done as above, or by Linco Labs as a custom service, using their rat insulin RIA (Cat # RI-13K). […]

HIT-T15 cells [1] = test: Stimulation of insulin secretion in HIT-T15 cells (GSIS); assay type: cell-based, hamster; conditions: 15 mM glucose; level comparable to forskolin
Method: D. Stimulation of Insulin Secretion in HIT-T15 Cells
It is known that stimulation of cAMP in HIT-T15 cells causes an increase in insulin secretion when the glucose concentration in the culture media is changed from 3 mM to 15 mM. Thus, RUP3 ligands can also be tested for their ability to stimulate glucose-dependent insulin secretion (GSIS) in HIT-T15 cells. In this assay, 30,000 cells/well in a 12-well plate are incubated in culture media containing 3 mM glucose and no serum for 2 hours. The media is then changed; wells receive media containing either 3 mM or 15 mM glucose, and in both cases the media contains either vehicle (DMSO) or RUP3 ligand at a concentration of interest Some wells receive media containing 1 uM forskolin as a positive control. All conditions are tested in triplicate. Cells are incubated for 30 minutes, and the amount of insulin secreted into the media is determined by ELISA, using a kit from either Peninsula Laboratories (Cat # ELIS-7536) or Crystal Chem Inc. (Cat # 90060).
(§1) In the first of these, RUP3 agonists are used to stimulate HIT-T15 cells, which express RUP3 at significant levels, as indicated in the Northern blot shown in FIG. 4. […] In this example a RUP3 agonist can be evaluated for its ability to stimulate cAMP production in HIT cells in comparison to the level seen with the adenyl cyclase activator forskolin.

HIT-T15 cells [2] = test: Stimulation of cAMP in HIT-T15 cells; assay type: cell-based, hamster; conditions: compared with adenyl cyclase activator forskolin
Method: C. Stimulation of cAMP in HIT-T15 Cells
HIT-T15 (ATCC CRL#1777) is an immortalized hamster insulin-producing cell line. These cells express RUP3 and therefore can be used to assess the ability of RUP3 ligands to stimulate or inhibit cAMP accumulation via its endogenously expressed receptor. In this assay, cells are grown to 80% confluence and then distributed into a 96-well Flashplate (50,000 cells/well) for detection of cAMP via a “cAMP Flashplate Assay” (NEN, Cat # SMP004). Briefly, cells are placed into anti-cAMP antibody-coated wells that contain either vehicle, the test ligand(s) at a concentration of interest, or 1 uM forskolin. The latter is a direct activator of adenylyl cyclase and serves as a positive control for stimulation of cAMP in HIT-T15 cells. All conditions are tested in triplicate. […] Bound ^125I-cAMP is detected using a Wallac Microbeta Counter. The amount of cAMP in each sample is determined by comparison to a standard curve, obtained by placing known concentrations of cAMP in some wells on the plate.
as §1

Row | Structure (SMILES) | pIC50 (RUP3) | glucose-dependent insulin release in isolated rat islets (isolated rat islets) | insulin secretion in HIT cells (HIT-T15 cells [1]) | stimulation of cAMP in HIT-T15 cells (HIT-T15 cells [2])
1 | CCCC1CCN(c2cc(Oc3ccc(C(=O)CC(=O)OC)cc3)ccc2[N+](=O)[O-])CC1 [Compound A30, 3-{4-[4-Nitro-3-(4-propyl-piperidin-1-yl)-phenoxy]-phenyl}-3-oxo-propionic acid methyl ester] | 6.73 | enhance glucose-dependent insulin release | stimulate insulin secretion | robust stimulator of cAMP
2 | CC(=O)CCc1ccc(Oc2ccc([N+](=O)[O-])c(N3CCC(Sc4ccccn4)CC3)c2)cc1 [Compound A51, 4-(4-{4-Nitro-3-[4-(pyridin-2-ylsulfanyl)-piperidin-1-yl]-phenoxy}-phenyl)-butan-2-one] | 6.46 | – | – | –
3 | O=[N+]([O-])c1ccc(Oc2ccc(-n3cncn3)cc2)cc1N1CCC(Sc2ccccn2)CC1 [Compound A52, 2-{1-[2-Nitro-5-(4-[1,2,4]triazol-1-yl-phenoxy)-phenyl]-piperidin-4-ylsulfanyl}-pyridine] | 6.64 | – | – | –
